Patent publication US20070154996A1, “Method for transferring a glucosyl residue” (priority 2004, published 2007)

Assays:
trehalose phosphorylase [1] = molecular target: T1, trehalose phosphorylase (Thermoanaerobacter brockii, UniProt Q8L164); experiment: Transglucosylation to polyalcohols by trehalose phosphorylase (GC analysis); type: biochemical, Thermoanaerobium brockii; design: key to Transfer of a glucosyl residue (Transglucosylation): +++: the area of 60% or higher; ++: 30% or higher but less than 60%; +: 0% or higher but less than 30%; −: Transglucosylation was not detected; details: 1% (w/v) polyalcohol as acceptor, 1.4% (w/v) β-G1P, pH 6.0, 50° C., 24 hours; for Transfer of a glucosyl residue (Transglucosylation): one unit/ml enzyme, peak area of transferred product to total peak area
T1 construct: cells collected from the culture were disrupted by ultrasonication and then, the supernatant was collected; made in house; host or cells: Thermoanaerobium brockii ATCC 35047 (natural producer, not recombinant); purified by DEAE, butyl and gel filtration chromatography
T1 sequence (Q8L164 1-774): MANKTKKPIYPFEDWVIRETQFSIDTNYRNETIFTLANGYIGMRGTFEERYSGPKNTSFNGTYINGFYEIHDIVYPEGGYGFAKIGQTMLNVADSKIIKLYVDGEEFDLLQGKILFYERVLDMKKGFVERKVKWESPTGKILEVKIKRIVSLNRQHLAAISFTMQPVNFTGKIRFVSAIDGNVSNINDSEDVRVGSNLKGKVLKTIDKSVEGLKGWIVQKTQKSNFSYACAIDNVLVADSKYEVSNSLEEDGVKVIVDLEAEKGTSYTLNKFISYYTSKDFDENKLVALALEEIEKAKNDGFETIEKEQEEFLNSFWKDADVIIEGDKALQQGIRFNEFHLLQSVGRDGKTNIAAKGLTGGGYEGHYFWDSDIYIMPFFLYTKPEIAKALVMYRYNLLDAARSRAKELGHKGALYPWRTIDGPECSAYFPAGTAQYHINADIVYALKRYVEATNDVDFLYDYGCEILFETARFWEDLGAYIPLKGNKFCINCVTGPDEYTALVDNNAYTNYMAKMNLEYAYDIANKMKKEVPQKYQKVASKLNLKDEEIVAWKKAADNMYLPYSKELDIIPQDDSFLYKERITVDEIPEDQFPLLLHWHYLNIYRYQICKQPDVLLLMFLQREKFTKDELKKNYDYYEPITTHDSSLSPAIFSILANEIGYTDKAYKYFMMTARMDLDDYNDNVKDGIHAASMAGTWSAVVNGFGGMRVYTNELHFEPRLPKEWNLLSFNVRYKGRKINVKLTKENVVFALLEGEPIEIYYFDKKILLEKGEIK
Protocol: (§1) An aqueous solution containing 1% (w/v) of either of polyalcohols (all reagent grade), shown in Table 1 below, 1.4% (w/v) of a reagent grade β-G1P, one unit/ml of trehalose phosphorylase obtained in Example 1-1, and 50 mM acetate buffer (pH 6.0) was prepared and followed by the enzyme reaction while keeping the solution at 50° C. for 24 hours. After the reaction, a portion of each reaction mixture was withdrawn, dried, and dissolved in pyridine for gas chromatography analysis (hereinafter, simply abbreviated as “GC”). In GC analysis, a stainless steel column (internal diameter 3 mm×length 2 m) packed with 2% Silicon OV-17/Chromosorb W”, commercialized by GL Science, Tokyo, Japan) was used. Nitrogen gas was used as carrier gas and the flow rate was set to 40 ml/min. A column oven was controlled to rise a column temperature at 160° C. to 320° C. in a rate of 7.5° C./min after the injection of samples. A hydrogen-flame ion detector was used for the detection. An aqueous solution with the same composition except for trehalose phosphorylase was prepared, kept with the same condition described above, and analyzed by GC by the same condition to confirm the chromatogram of non-reacted polyalcohol and β-G1P. Transfer of a glucosyl residue to each polyalcohol was judged by detecting new peak(s) in the chromatogram of the reaction mixture. The amount of glucosyl-transferred polyalcohol formed by the reaction was estimated based on a peak area of the glucosyl-transferred polyalcohol to the total peak area including that of non-reacted (residual) polyalcohol, and classified into three groups of the area of 60% or higher, “+++”; 30% or higher but less than 60%, “++”; and 0% or higher but less than 30%, “+”.

trehalose phosphorylase [2] = molecular target: T1, trehalose phosphorylase; experiment: Transglucosylation to glucuronic acid and C-6DGs by trehalose phosphorylase (GC analysis); type: biochemical, Thermoanaerobium brockii; details: 1% (w/v) glucuronic acid or C-6DG as acceptor, 1.4% (w/v) β-G1P, one unit/ml enzyme, pH 6.0, 50° C., 24 hours; peak area of transferred product to total peak area
Protocol: as §1
An aqueous solution containing 1% (w/v) of any one of glucuronic acid or C-6DGs (all reagent grade), shown in Table 2 below, 1.4% (w/v) of a reagent grade β-G1P, one unit/ml of trehalose phosphorylase obtained in Example 1-1, and 50 mM acetate buffer (pH 6.0) was prepared and followed by the enzyme reaction while keeping the solution at 50° C. for 24 hours. After the reaction, each reaction mixture was analyzed by GC described in Example 1-2. In the same manner as described in Example 1-2, the amount of a glucosyl-transferred product formed by the reaction was estimated based on a peak area of the glucosyl-transferred product to the total peak area including that of non-reacted (remaining) glucuronic acid or C-6DGs, and classified into three groups of the area of 60% or higher, “+++”; 30% or higher but less than 60%, “++”; and 0% or higher but less than 30%, “+”.

Row | Compound | Transfer of a glucosyl residue (Transglucosylation) (trehalose phosphorylase [1]) | Transglucosylation to the polyalcohol, stated in words (trehalose phosphorylase [1]) | Transfer of a glucosyl residue (Transglucosylation) (trehalose phosphorylase [2])
1 | OC[C@@H](O)[C@@H](O)CO [Erythritol] | + (0% or higher but less than 30%) | transferred a glucosyl residue | 
2 | O=C[C@H](O)[C@@H](O)[C@H](O)[C@H](O)C(=O)O [Glucuronic acid] |  |  | + (0% or higher but less than 30%)
3 | OCC(O)CO [Glycerol] | + (0% or higher but less than 30%) | transferred a glucosyl residue | 
4 | OC[C@H]1O[C@H](OC[C@H]2OC(O)[C@H](O)[C@@H](O)[C@@H]2O)[C@H](O)[C@@H](O)[C@@H]1O (stereo partly shown) [Isomaltose] |  |  | +++ (the area of 60% or higher)
5 | OC[C@H]1O[C@H](OC[C@H]2O[C@H](OC[C@H]3OC(O)[C@H](O)[C@@H](O)[C@@H]3O)[C@H](O)[C@@H](O)[C@@H]2O)[C@H](O)[C@@H](O)[C@@H]1O (stereo partly shown) [Isomaltotriose] |  |  | +++ (the area of 60% or higher)
6 | OC[C@H]1O[C@H](O[C@H]2[C@H](O)[C@@H](O)[C@@H](OC[C@H]3OC(O)[C@H](O)[C@@H](O)[C@@H]3O)O[C@@H]2CO)[C@H](O)[C@@H](O)[C@@H]1O (stereo partly shown) [Isopanose] |  |  | +++ (the area of 60% or higher)
7 | OC[C@H]1O[C@H](OCC2O[C@@H](O)[C@H](O)[C@@H](O)[C@@H]2O)[C@H](O)[C@@H](O)[C@H]1O (stereo partly shown) [Melibiose] |  |  | +++ (the area of 60% or higher)
8 | OC[C@@H](O)[C@@H](O)[C@@H](O)CO [Ribitol] | + (0% or higher but less than 30%) | transferred a glucosyl residue | 
9 | OC[C@@H](O)[C@@H](O)[C@H](O)[C@@H](O)CO [Sorbitol] | −* | no transglucosylation | 
10 | O[C@H]1[C@H](O)[C@@H](O)[C@H](O)[C@@H](O)[C@H]1O [myo-Inositol] | ++ (30% or higher but less than 60%) | transferred a glucosyl residue | 
11 | Gentiobiose |  |  | +++ (the area of 60% or higher)
